How the values were obtained:
Human neurokinin (NK1) = molecular target: T1, Human neurokinin (NK1) (Homo sapiens, UniProt P25103); test: Radioligand binding, human neurokinin NK1 membranes, filtration, [125I]-Substance P; conditions: compound at 10 μM; [125I]-Substance P, human NK1 membranes
T1 construct: purchased Perkin Elmer Biosignal
Procedure, shortened: (§1)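 Percent inhibition of radioligand binding measured on recombinant human membranes: NK1 with [125I]-Substance P, KOP with [3H]-Diprenorphine. Incubation 1 h at room temperature, then harvest onto 0.3% PEI-soaked filters, cold Tris-HCl pH 7.4 washes and scintillation counting; non-specific binding from reference ligand wells.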

Human Melanocortin (MC4) = molecular target: T2, Human Melanocortin (MC4) (Homo sapiens, UniProt P32245); test: Radioligand binding, human melanocortin MC4 membranes, FlashPlate, [125I]-NDP-αMSH; conditions: compound at 10 μM, [125I]-NDP-αMSH, human MC4 membranes
T2 construct: purchased Perkin Elmer Biosignal
T2 sequence (P32245 whole entry): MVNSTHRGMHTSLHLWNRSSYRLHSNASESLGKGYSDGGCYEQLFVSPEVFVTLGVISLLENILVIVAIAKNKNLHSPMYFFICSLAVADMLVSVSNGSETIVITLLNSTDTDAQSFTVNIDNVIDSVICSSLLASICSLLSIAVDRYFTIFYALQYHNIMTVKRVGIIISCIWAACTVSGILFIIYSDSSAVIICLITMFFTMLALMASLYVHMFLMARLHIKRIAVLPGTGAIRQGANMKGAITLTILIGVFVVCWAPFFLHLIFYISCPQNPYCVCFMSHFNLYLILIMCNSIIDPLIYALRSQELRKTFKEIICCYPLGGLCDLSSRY
Procedure, shortened: (§2)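 Cloned human receptor membranes were coated onto FlashPlate wells and incubated with radioligand and compound (added from a 0.5 mM DMSO daughter plate) for 1 hour at room temperature in the dark. Scintillation counting gave percent inhibition, with DMSO defining total and reference ligand defining non-specific binding.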

[1] = molecular target: T3, Human melanin-concentrating hormone (MCH1) (Homo sapiens, UniProt Q99705); test: Radioligand binding, human melanin-concentrating hormone MCH1 membranes, FlashPlate, [125I]-S36057; conditions: compound at 10 μM; [125I]-S36057, human MCH1 membranes; 10 µM
T3 construct: purchased Perkin Elmer Biosignal
T3 sequence (Q99705 whole entry): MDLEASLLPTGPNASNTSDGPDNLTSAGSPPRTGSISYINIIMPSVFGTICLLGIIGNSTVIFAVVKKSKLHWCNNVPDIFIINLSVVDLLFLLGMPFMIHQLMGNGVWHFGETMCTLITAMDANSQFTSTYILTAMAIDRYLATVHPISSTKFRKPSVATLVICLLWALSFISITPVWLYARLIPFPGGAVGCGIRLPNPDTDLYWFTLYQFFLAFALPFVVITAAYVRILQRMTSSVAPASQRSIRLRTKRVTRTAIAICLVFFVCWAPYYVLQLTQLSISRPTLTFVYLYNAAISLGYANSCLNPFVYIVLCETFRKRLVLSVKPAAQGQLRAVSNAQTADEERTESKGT
Procedure, shortened: as §2

[2] = molecular target: T4, Human neuropeptide Y (NPY-Y1) (Homo sapiens, UniProt P25929); test: Radioligand binding, human neuropeptide Y NPY-Y1 membranes, FlashPlate, [125I]-PYY; conditions: compound at 10 μM; [125I]-PYY, human NPY-Y1 membranes
T4 construct: purchased Perkin Elmer Biosignal
T4 sequence (P25929 1-384): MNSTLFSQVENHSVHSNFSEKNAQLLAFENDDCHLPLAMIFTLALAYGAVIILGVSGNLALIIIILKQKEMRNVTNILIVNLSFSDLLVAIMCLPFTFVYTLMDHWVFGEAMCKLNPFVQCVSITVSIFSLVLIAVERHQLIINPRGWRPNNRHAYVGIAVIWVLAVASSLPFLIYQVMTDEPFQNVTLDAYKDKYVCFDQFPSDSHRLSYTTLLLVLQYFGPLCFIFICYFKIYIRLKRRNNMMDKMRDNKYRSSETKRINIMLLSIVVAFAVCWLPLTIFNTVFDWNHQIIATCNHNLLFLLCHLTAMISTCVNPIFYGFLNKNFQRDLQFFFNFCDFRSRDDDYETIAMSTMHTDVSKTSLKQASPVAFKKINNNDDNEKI
Procedure, shortened: as §2

Human melanocortin (MC5) = molecular target: T5, Human melanocortin (MC5) (Homo sapiens, UniProt P33032); test: Radioligand binding, human melanocortin MC5 membranes, FlashPlate, [125I]-NDP-αMSH; conditions: compound at 10 μM; [125I]-NDP-αMSH, human MC5 membranes
T5 construct: purchased Perkin Elmer Biosignal
T5 sequence (P33032 whole entry): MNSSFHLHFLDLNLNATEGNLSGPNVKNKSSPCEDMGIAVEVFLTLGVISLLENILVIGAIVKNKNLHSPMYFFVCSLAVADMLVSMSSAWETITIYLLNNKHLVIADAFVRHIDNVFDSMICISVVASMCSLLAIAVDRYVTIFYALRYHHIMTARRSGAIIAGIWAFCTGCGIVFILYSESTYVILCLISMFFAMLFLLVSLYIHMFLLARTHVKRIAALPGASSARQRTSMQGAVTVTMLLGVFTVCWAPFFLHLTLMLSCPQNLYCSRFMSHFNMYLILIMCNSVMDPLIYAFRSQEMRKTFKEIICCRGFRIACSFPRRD
Procedure, shortened: as §2

Human δ-opioid (DOP) = molecular target: T6, Human δ-opioid (DOP) (Homo sapiens, UniProt P41143); test: Radioligand binding, human δ-opioid (DOP) membranes, FlashPlate, [3H]-Bremazocine; conditions: compound at 10 μM; [3H]-Bremazocine, human DOP membranes
T6 construct: purchased Perkin Elmer Biosignal
T6 sequence (P41143 whole entry): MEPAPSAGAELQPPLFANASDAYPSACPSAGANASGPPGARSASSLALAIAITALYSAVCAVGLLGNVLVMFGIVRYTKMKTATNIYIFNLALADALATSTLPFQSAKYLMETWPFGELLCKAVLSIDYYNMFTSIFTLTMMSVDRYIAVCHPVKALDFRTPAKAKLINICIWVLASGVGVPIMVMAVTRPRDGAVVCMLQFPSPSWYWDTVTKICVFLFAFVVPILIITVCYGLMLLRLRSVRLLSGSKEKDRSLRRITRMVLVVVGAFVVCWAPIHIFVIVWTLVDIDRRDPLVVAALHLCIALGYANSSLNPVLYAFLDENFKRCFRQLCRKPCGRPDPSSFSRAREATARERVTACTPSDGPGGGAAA
Procedure, shortened: as §2

Mouse urotensin (mUR2) = molecular target: T7, Mouse urotensin (mUR2) (Mus musculus, UniProt Q8VIH9); test: Radioligand binding, mouse urotensin mUR2 membranes, FlashPlate, [125I]-Urotensin II; conditions: compound at 10 μM; [125I]-Urotensin II, mouse mUR2 membranes
T7 construct: purchased Perkin Elmer Biosignal
T7 sequence (Q8VIH9 1-385): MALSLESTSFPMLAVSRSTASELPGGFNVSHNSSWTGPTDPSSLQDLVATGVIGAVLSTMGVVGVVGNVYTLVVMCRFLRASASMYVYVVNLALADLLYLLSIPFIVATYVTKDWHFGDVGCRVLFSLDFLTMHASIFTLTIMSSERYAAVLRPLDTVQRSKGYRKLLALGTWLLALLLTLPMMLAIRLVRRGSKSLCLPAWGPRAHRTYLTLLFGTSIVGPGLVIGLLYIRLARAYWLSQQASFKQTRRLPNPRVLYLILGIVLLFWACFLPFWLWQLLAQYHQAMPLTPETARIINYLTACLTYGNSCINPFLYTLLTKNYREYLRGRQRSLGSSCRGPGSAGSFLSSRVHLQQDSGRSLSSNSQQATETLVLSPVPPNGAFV
Procedure, shortened: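 Cloned mouse urotensin (mUR2) receptor membranes from Perkin Elmer Biosignal were immobilized in FlashPlate microplates using a proprietary coating. Each well got 19.5 μl buffer, then 0.5 μl of DMSO, reference ligand, or compound. Adding 5 μl of [125I]-Urotensin II, diluted to 5× final concentration in binding buffer, started binding. Plates were sealed with TopSeal-A and incubated 1 hour at room temperature in the dark. Wells were counted for 30 seconds each on a TopCount after a 60-second delay, and percentage inhibition was calculated.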

Human opioid (ORL1) = molecular target: T8, Human opioid (ORL1) (Homo sapiens, UniProt P41146); test: Radioligand binding, human opioid ORL1 membranes, FlashPlate, [125I]-Nociceptin; conditions: compound at 10 μM; [125I]-Nociceptin, human ORL1 membranes; 10 µM
T8 construct: purchased Perkin Elmer Biosignal
T8 sequence (P41146 whole entry): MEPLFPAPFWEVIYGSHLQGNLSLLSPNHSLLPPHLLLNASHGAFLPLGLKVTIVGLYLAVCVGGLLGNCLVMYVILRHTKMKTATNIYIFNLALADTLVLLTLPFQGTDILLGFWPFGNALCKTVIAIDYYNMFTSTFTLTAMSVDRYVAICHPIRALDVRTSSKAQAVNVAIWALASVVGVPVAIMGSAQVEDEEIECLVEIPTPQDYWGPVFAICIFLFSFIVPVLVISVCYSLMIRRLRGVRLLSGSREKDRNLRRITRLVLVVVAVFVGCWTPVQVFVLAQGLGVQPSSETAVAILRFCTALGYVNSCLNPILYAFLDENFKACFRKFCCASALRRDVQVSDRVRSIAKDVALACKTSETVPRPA
Procedure, shortened: as §2

Human Melanocortin (MC3) = molecular target: T9, Human Melanocortin (MC3) (Homo sapiens, UniProt P41968); test: Radioligand binding, human melanocortin MC3 membranes, FlashPlate, [125I]-NDP-αMSH; conditions: compound at 10 μM, [125I]-NDP-αMSH, human MC3 membranes
T9 construct: purchased Perkin Elmer Biosignal
T9 sequence (P41968 whole entry): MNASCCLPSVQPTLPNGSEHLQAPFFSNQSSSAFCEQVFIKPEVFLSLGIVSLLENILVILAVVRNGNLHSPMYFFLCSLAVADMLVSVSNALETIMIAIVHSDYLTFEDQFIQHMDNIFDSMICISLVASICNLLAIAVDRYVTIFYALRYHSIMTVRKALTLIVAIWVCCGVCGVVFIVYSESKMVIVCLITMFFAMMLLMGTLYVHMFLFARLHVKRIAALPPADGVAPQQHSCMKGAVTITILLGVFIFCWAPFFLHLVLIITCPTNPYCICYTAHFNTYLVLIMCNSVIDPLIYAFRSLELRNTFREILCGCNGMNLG
Procedure, shortened: as §2

Human κ-Opioid (KOP) = molecular target: T10, Human κ-Opioid (KOP) (Homo sapiens, UniProt P41145); test: Radioligand binding, human κ-opioid (KOP) membranes, filtration, [3H]-Diprenorphine; conditions: compound at 10 μM, [3H]-Diprenorphine, human KOP membranes
T10 construct: purchased Perkin Elmer Biosignal
T10 sequence (P41145 whole entry): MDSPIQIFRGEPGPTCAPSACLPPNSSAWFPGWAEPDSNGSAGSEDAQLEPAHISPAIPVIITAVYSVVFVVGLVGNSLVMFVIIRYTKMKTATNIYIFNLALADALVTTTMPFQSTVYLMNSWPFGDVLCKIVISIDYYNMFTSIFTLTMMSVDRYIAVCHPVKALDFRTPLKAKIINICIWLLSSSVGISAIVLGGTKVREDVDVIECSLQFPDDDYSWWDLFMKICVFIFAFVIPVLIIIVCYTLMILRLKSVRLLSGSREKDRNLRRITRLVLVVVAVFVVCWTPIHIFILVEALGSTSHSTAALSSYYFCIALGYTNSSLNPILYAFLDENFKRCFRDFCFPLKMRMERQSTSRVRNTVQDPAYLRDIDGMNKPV
Procedure, shortened: as §1

Human μ-opioid (MOP) = molecular target: T11, Human μ-opioid (MOP) (Homo sapiens, UniProt P35372); test: Radioligand binding, human μ-opioid (MOP) membranes, FlashPlate, [3H]-Naloxone; conditions: compound at 10 μM, [3H]-Naloxone, human MOP membranes
T11 construct: purchased Perkin Elmer Biosignal
T11 sequence (P35372 whole entry): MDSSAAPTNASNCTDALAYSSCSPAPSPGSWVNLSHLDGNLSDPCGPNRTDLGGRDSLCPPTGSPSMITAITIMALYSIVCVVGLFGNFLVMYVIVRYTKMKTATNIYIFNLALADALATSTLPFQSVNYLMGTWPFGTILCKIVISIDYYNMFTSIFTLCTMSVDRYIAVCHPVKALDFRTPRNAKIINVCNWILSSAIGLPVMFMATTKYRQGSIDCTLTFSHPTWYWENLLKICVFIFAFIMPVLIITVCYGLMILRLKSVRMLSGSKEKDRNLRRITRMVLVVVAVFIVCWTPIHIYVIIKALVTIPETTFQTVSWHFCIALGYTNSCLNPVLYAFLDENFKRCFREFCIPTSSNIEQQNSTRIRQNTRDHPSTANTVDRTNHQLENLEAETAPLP
Procedure, shortened: as §2

T1 sequence (P25103 whole entry): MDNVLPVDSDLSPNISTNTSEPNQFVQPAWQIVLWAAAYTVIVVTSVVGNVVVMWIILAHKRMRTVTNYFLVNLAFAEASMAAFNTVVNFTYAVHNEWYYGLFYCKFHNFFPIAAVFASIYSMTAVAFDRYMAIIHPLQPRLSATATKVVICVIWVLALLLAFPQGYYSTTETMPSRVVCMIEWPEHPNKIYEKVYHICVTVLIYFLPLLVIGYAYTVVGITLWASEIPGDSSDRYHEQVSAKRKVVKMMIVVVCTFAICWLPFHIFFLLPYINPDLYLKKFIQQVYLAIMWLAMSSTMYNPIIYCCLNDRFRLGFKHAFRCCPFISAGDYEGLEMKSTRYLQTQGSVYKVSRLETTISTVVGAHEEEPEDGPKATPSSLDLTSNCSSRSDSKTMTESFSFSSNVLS

Row | Compound | A8: inhibition of radioligand binding (Human neurokinin (NK1)) | A4: inhibition of radioligand binding (Human Melanocortin (MC4); 10 µM) | A6: inhibition of radioligand binding [1] | A9: inhibition of radioligand binding [2] | A5: inhibition of radioligand binding (Human melanocortin (MC5)) | A1: inhibition of radioligand binding (Human δ-opioid (DOP)) | A11: inhibition of radioligand binding (Mouse urotensin (mUR2)) | A10: inhibition of radioligand binding (Human opioid (ORL1)) | A3: inhibition of radioligand binding (Human Melanocortin (MC3); 10 µM) | A2: inhibition of radioligand binding (Human κ-Opioid (KOP)) | A7: inhibition of radioligand binding (Human μ-opioid (MOP); 10 µM) | A4: inhibition of radioligand binding (Human Melanocortin (MC4)) | A3: inhibition of radioligand binding (Human Melanocortin (MC3)) | A2: inhibition of radioligand binding (Human κ-Opioid (KOP); 10 µM) | A7: inhibition of radioligand binding (Human μ-opioid (MOP))
1 | NCCCC(=O)NC1C(OCc2ccc3ccccc3c2)OC(COCc2ccc3ccccc3c2)C(O)C1OCc1ccc2ccccc2c1 (single isomer, unassigned) [compound 461] | + (“+” indicates greater than 50% inhibition at 10 μM) | + (“+” indicates greater than 50% inhibition at 10 μM) | + (“+” indicates greater than 50% inhibition at 10 μM) | − (“−” indicates less than 50% inhibition at 10 μM) | + (“+” indicates greater than 50% inhibition at 10 μM) | − (“−” indicates less than 50% inhibition at 10 μM) | − (“−” indicates less than 50% inhibition at 10 μM) | + (“+” indicates greater than 50% inhibition at 10 μM) | + (“+” indicates greater than 50% inhibition at 10 μM) | − (“−” indicates less than 50% inhibition at 10 μM) | + (“+” indicates greater than 50% inhibition at 10 μM) | – | – | – | –
2 | NCCCC(=O)NC1C(OCc2ccc3ccccc3c2)OC(COCc2ccc(Cl)cc2)C(O)C1OCc1ccc2ccccc2c1 (single isomer, unassigned) [compound 463] | + (“+” indicates greater than 50% inhibition at 10 μM) | – | + (“+” indicates greater than 50% inhibition at 10 μM) | − (“−” indicates less than 50% inhibition at 10 μM) | + (“+” indicates greater than 50% inhibition at 10 μM) | − (“−” indicates less than 50% inhibition at 10 μM) | − (“−” indicates less than 50% inhibition at 10 μM) | − (“−” indicates less than 50% inhibition at 10 μM) | – | – | – | + (“+” indicates greater than 50% inhibition at 10 μM) | + (“+” indicates greater than 50% inhibition at 10 μM) | + (“+” indicates greater than 50% inhibition at 10 μM) | − (“−” indicates less than 50% inhibition at 10 μM)
3 | NCCCC(=O)NC1C(OCc2ccc3ccccc3c2)OC(COCc2ccc(Cl)cc2)C(O)C1OCc1ccc2ccccc2c1 (single isomer, unassigned) [compound 464] | + (“+” indicates greater than 50% inhibition at 10 μM) | – | + (“+” indicates greater than 50% inhibition at 10 μM) | − (“−” indicates less than 50% inhibition at 10 μM) | + (“+” indicates greater than 50% inhibition at 10 μM) | − (“−” indicates less than 50% inhibition at 10 μM) | − (“−” indicates less than 50% inhibition at 10 μM) | + (“+” indicates greater than 50% inhibition at 10 μM) | – | – | – | + (“+” indicates greater than 50% inhibition at 10 μM) | + (“+” indicates greater than 50% inhibition at 10 μM) | − (“−” indicates less than 50% inhibition at 10 μM) | − (“−” indicates less than 50% inhibition at 10 μM)
4 | NCCCC(=O)NC1C(OCc2ccc3ccccc3c2)OC(COCc2ccc3ccccc3c2)C(O)C1OCc1ccccc1 (single isomer, unassigned) [compound 465] | + (“+” indicates greater than 50% inhibition at 10 μM) | − (“−” indicates less than 50% inhibition at 10 μM) | − (“−” indicates less than 50% inhibition at 10 μM) | − (“−” indicates less than 50% inhibition at 10 μM) | + (“+” indicates greater than 50% inhibition at 10 μM) | − (“−” indicates less than 50% inhibition at 10 μM) | − (“−” indicates less than 50% inhibition at 10 μM) | − (“−” indicates less than 50% inhibition at 10 μM) | − (“−” indicates less than 50% inhibition at 10 μM) | − (“−” indicates less than 50% inhibition at 10 μM) | – | – | – | – | − (“−” indicates less than 50% inhibition at 10 μM)
5 | NCCCC(=O)NC1C(OCc2ccc3ccccc3c2)OC(COCc2ccc3ccccc3c2)C(O)C1OCc1ccccc1 (single isomer, unassigned) [compound 466] | + (“+” indicates greater than 50% inhibition at 10 μM) | + (“+” indicates greater than 50% inhibition at 10 μM) | + (“+” indicates greater than 50% inhibition at 10 μM) | − (“−” indicates less than 50% inhibition at 10 μM) | + (“+” indicates greater than 50% inhibition at 10 μM) | − (“−” indicates less than 50% inhibition at 10 μM) | − (“−” indicates less than 50% inhibition at 10 μM) | + (“+” indicates greater than 50% inhibition at 10 μM) | − (“−” indicates less than 50% inhibition at 10 μM) | − (“−” indicates less than 50% inhibition at 10 μM) | – | – | – | – | − (“−” indicates less than 50% inhibition at 10 μM)
